Assay results reported in patent US8933074B2, “1,2-disubstituted heterocyclic compounds” (FORUM Pharmaceuticals Inc., priority 2008, dated 2015).

test system: rat; test: not given; conditions: rats; cited from earlier work

Row | SMILES | apomorphine induced stereotypes | haloperidol induced catalepsy | rat brain dopamine levels
1 | COc1ccc(Cc2nccc3cc(OC)c(OC)cc23)cc1OC [papaverine] | reduces | increases | reduces

target: Human PDE10A1 (Homo sapiens, UniProt Q9Y233); test: hPDE10A1 enzyme inhibition; assay type: biochemical; conditions: [3H]-cAMP substrate, 20 minutes at 37° C.; read-out: hPDE10A1 IC50 Band
Sequence (Q9Y233 1-779 isoform Q9Y233-1): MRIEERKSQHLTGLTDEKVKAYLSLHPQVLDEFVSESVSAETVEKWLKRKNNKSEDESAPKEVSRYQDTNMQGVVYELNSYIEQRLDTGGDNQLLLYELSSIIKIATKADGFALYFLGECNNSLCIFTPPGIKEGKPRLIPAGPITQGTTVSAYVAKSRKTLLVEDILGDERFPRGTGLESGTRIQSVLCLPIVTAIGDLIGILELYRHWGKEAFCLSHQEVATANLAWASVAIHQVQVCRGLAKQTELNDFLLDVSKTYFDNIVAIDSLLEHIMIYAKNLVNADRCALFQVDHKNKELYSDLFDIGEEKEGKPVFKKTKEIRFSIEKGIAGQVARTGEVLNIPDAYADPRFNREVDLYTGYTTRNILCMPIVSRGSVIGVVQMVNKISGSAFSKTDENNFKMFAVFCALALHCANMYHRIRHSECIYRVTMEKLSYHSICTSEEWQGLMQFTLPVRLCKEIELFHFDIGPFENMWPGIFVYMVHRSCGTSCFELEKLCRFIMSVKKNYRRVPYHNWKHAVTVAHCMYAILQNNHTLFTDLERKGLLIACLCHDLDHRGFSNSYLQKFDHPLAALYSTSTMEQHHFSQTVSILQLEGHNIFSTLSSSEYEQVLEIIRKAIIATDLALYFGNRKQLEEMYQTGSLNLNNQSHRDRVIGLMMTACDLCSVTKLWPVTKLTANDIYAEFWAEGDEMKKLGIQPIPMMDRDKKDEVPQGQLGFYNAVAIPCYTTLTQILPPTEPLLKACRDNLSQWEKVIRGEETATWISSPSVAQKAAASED
Description: 50 μl samples of serially diluted Human PDE10A1 enzyme were incubated with 50 μl of [^3H]-cAMP for 20 minutes (at 37° C.). Reactions were carried out in Greiner 96 deep well 1 ml master-block. The enzyme was diluted in 20 mM Tris HCl pH7.4 and [^3H]-cAMP was diluted in 10 mM MgCl2, 40 mM Tris.HCl pH 7.4. The reaction was terminated by denaturing the PDE enzyme (at 70° C.) after which [^3H]-5′-AMP was converted to [^3H]-adenosine by adding 25 μl snake venom nucleotidase and incubating for 10 minutes (at 37° C.). Adenosine, being neutral, was separated from charged cAMP or AMP by the addition of 200 μl Dowex resin. Samples were shaken for 20 minutes then centrifuged for 3 minutes at 2,500 r.p.m. 50 μl of supernatant was removed and added to 200 μl of MicroScint-20 in white plates (Greiner 96-well Optiplate) and shaken for 30 minutes before reading on Perkin Elmer TopCount Scintillation Counter.
To check inhibition profile 11 μl of serially diluted inhibitor was added to 50 μl of [^3H]-cAMP and 50 ul of diluted Human PDE10A1 and assay was carried out as in the enzyme activity assay. Data was analysed using Prism software (GraphPad Inc).

Row | IC50 | SMILES
2 | ≤ 50 nM | COc1ccc(C2=C(c3ccc(OCc4ccc5ccccc5n4)cc3)OC(C)(C)C2=O)cc1 [Example 262, 4-(4-methoxyphenyl)-2,2-dimethyl-5-(4-(quinolin-2-ylmethoxy)phenyl)furan-3(2H)-one]
3 | ≤ 50 nM | Cc1ccc(COc2ccc(C3=C(c4ccncc4)OC(C)(C)C3=O)cc2)nc1 [Example 808, 2,2-dimethyl-4-(4-((5-methylpyridin-2-yl)methoxy)phenyl)-5-(pyridin-4-yl) furan-3(2H)-one]
4 | ≤ 50 nM | Cc1cnc(COc2ccc(C3=C(c4ccncc4)OC(C)(C)C3=O)cc2)c(C)c1 [Example 809, 4-(4-((3,5-Dimethylpyridin-2-yl)methoxy)phenyl)-2,2-dimethyl-5-(pyridin-4-yl) furan-3(2H)-one]
5 | ≤ 50 nM | CC1(C)OC(c2ccncc2)=C(c2ccc(OCc3ccc4cc(F)ccc4n3)cc2)C1=O [Example 810, 4-(4-((6-Fluoroquinolin-2-yl)methoxy)phenyl)-2,2-dimethyl-5-(pyridin-4-yl) furan-3(2H)-one]
6 | ≤ 50 nM | CC1(C)OC(c2ccccc2)=C(c2ccc(OCc3ccc4ccccc4n3)cc2)C1=O [Example 811, 2,2-dimethyl-5-phenyl-4-(4-(quinolin-2-ylmethoxy)phenyl)furan-3(2H)-one]
7 | > 50 nM | CN1C(=O)C(c2ccc(OCc3ccc4ccccc4n3)cc2)=C(N2CCOCC2)C1=O [Example 812, 1-Methyl-3-morpholino-4-(4-(quinolin-2-ylmethoxy)phenyl)-1H-pyrrole-2,5-dione]
8 | ≤ 50 nM | CC1(C)OC(c2ccc(O)cc2)=C(c2ccc(OCc3ccc4ccccc4n3)cc2)C1=O [Example 813, 5-(4-hydroxyphenyl)-2,2-dimethyl-4-(4-(quinolin-2-ylmethoxy)phenyl)furan-3(2H)-one]
9 | ≤ 50 nM | CC(=O)Nc1ccc(C2=C(c3ccc(OCc4ccc5ccccc5n4)cc3)C(=O)C(C)(C)O2)cc1 [Example 814, N-(4-(5,5-dimethyl-4-oxo-3-(4-(quinolin-2-ylmethoxy)phenyl)-4,5-dihydrofuran-2-yl)phenyl)acetamide]
10 | ≤ 50 nM | CC1(C)OC(c2ccc(NS(C)(=O)=O)cc2)=C(c2ccc(OCc3ccc4ccccc4n3)cc2)C1=O [Example 815, N-(4-(5,5-dimethyl-4-oxo-3-(4-(quinolin-2-ylmethoxy)phenyl)-4,5-dihydrofuran-2-yl)phenyl)methanesulfonamide]
11 | ≤ 50 nM | CC1(C)OC(c2ccc(N(S(C)(=O)=O)S(C)(=O)=O)cc2)=C(c2ccc(OCc3ccc4ccccc4n3)cc2)C1=O [Example 817, N-(4-(5,5-dimethyl-4-oxo-3-(4-(quinolin-2-ylmethoxy)phenyl)-4,5-dihydrofuran-2-yl)phenyl)-N-(methylsulfonyl)methanesulfonamide]
12 | ≤ 50 nM | Cc1ccc(C2=C(c3ccc(OCc4ccc5ccccc5n4)cc3)C(=O)C(C)(C)O2)cc1 [Example 818, 2,2-dimethyl-4-(4-(quinolin-2-ylmethoxy)phenyl)-5-p-tolylfuran-3(2H)-one]
13 | ≤ 50 nM | CC(=O)N(C(C)=O)c1ccc(C2=C(c3ccc(OCc4ccc5ccccc5n4)cc3)C(=O)C(C)(C)O2)cc1 [Example 819, N-acetyl-N-(4-(5,5-dimethyl-4-oxo-3-(4-(quinolin-2-ylmethoxy)phenyl)-4,5-dihydrofuran-2-yl)phenyl)acetamide]
14 | > 50 nM | CN1C(=O)C(c2ccc(OCc3ccc4ccccc4n3)cc2)=C(N2CCC(=O)CC2)C1=O [Example 820, 1-Methyl-3-(4-oxopiperidin-1-yl)-4-(4-(quinolin-2-ylmethoxy)phenyl)-1H-pyrrole-2,5-dione]
15 | ≤ 50 nM | CC1(C)OC(c2ccc3ocnc3c2)=C(c2ccc(OCc3ccc4ccccc4n3)cc2)C1=O [Example 821, 5-(benzo[d]oxazol-5-yl)-2,2-dimethyl-4-(4-(quinolin-2-ylmethoxy)phenyl)furan-3(2H)-one]
16 | > 50 nM | COc1ccc(-c2c(-c3ccc(OCc4ccc5ccccc5n4)cc3)n(C)c(=O)n2C)cc1 [Example 822, 4-(4-Methoxyphenyl)-1,3-dimethyl-5-(4-(quinolin-2-ylmethoxy)phenyl)-1H-imidazol-2(3H)-one]
17 | ≤ 50 nM | COc1ccc(C2=C(c3ccc(OCc4ccc5ccccc5n4)cc3)C(=O)NC2(C)C)cc1 [Example 823, 4-(4-methoxyphenyl)-5,5-dimethyl-3-(4-(quinolin-2-ylmethoxy)phenyl)-1H-pyrrol-2(5H)-one]
18 | ≤ 50 nM | O=C1C(c2ccc(OCc3ccc4ccccc4n3)cc2)=C(c2ccncc2)OC12CCCC2 [Example 824, 2-(pyridin-4-yl)-3-(4-(quinolin-2-ylmethoxy)phenyl)-1-oxaspiro[4.4]non-2-en-4-one]
